Assay results taken from PMC5836727 (ACS chemical biology, 2017).

How the values were obtained:
[1] = molecular target: T1, firefly luciferase (Photinus pyralis, UniProt P08659); assay: bioluminescence of transfected live CHO cells; format: cell-based; settings: 100 uM in HBSS
[2] = molecular target: T2, CG6178 (Drosophila melanogaster, UniProt Q9VCC6); assay: bioluminescence; format: biochemical; settings: ATP, MgSO4, pH 7.4; 20 nM enzyme, 250 uM luciferin
T2 sequence (Q9VCC6 1-544): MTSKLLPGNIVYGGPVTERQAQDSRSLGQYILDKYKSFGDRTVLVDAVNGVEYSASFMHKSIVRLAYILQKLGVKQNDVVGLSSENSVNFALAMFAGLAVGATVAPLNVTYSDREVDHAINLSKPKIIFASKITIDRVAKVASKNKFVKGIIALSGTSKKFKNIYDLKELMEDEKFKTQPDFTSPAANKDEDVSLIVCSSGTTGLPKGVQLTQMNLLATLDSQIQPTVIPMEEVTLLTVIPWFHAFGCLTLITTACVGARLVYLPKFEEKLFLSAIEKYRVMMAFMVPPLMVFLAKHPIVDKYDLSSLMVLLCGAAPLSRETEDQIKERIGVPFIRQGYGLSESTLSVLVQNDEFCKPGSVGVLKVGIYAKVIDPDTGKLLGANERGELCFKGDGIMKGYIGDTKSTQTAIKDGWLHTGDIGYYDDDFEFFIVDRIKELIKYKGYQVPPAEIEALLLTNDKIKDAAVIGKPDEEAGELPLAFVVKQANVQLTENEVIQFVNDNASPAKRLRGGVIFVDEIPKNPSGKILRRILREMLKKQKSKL

[3] = molecular target: T1, firefly luciferase; assay: bioluminescence burst kinetics after rapid injection; format: biochemical; settings: 100 nM enzyme, 100 uM substrate

T1 sequence (P08659 whole entry): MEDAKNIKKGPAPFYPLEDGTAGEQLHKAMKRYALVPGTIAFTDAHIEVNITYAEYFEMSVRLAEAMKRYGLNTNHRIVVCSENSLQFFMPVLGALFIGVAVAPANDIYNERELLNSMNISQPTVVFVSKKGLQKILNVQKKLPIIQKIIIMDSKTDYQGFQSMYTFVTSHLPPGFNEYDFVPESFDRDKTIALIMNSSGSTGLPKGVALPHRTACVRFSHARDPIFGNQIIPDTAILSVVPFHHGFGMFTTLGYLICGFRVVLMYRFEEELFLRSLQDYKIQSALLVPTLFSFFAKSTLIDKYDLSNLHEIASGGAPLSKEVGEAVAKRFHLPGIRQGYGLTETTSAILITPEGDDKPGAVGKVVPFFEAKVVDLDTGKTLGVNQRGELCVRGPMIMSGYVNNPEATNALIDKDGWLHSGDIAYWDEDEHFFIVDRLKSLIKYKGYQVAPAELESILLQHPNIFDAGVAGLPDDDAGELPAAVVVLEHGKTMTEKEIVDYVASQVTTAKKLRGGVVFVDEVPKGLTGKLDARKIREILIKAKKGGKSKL

For `O=C(O)[C@H]1CSC(/C=C/c2ccc(N3CCCC3)cc2)=N1` [compound 5, (S,E)-2-(4-(pyrrolidin-1-yl)styryl)-4,5-dihydrothiazole-4-carboxylic acid], which “bioluminescence of transfected live CHO cells” value [1] is on record?
Its value is “all three are substrates for firefly luciferase and AbLL”.

`CN1CCc2cc3nc(C4=N[C@@H](C(=O)O)CS4)sc3cc21` [CycLuc2] was tested. Which “bioluminescence (photon flux, IVIS-100; burst kinetics)” value [2] did it give?
The value was “we found that CG6178 is capable of luciferase activity when treated with the synthetic luciferin CycLuc2”.

Which “bioluminescence burst kinetics after rapid injection” value [3] does the source give for `O=C(O)[C@H]1CSC(c2nc3ccc(O)cc3s2)=N1` [D-luciferin] here?
Its value is “more pronounced with the tighter-binding synthetic luciferins than with D-luciferin”.
